Reference: patent US7638538B1, “Pharmaceutically active sulfonyl amino acid derivatives” (Laboratoires Serono S.A., priority 1999, dated 2009)

How the values were obtained:
Assay type in all cases: biochemical
[1] = target: JNK3 (Homo sapiens, UniProt P53779); test: JNK3 in vitro kinase assay (SPA, GST-c-Jun substrate)
Procedure: (§1) JNK 2 and 3 in vitro assays: JNK 2 and/or 3 assays are performed 96 well MTT plates, by incubation of 0.5 μg of recombinant, pre-activated GST-JNK2 with 1 μg of recombinant, biotinylated GST-c-Jun and 2 μM ^33γ-ATP (2 nCi/μl), in the presence or absence of sulfonyl amino acid inhibitors and in a reaction volume of 150 μl containing 50 mM Tris-HCl, pH 8.0; 10 mM MgCl2; 1 mM Dithiothreitol, and 100 μM NaVO4. The incubation is carried for 120 min. at R.T and stopped up by addition of 200 μl of a solution containing 250 μg of Streptavidine-coated SPA beads (Amersham, Inc.)*, 5 mM EDTA, 0.1% Trinton X-100 and 50 μM ATP, in phosphate saline buffer. After incubation for 60 minutes at RT, beads are sedimented by centrifugation at 1500×g for 5 minutes, resuspended in 200 μl of PBS containing 5 mM EDTA, 0.1% Triton X-100 and 50 μM ATP and the radioactivity measured in a scintillation β counter, following sedimentation of the beads as described above. By substituting GST-c-Jun for biotinylated GST-1ATF2 or myelin basic protein, this assay can be used to measure inhibition of preactivated p38 and ERK MAP Kinases, respectively.

[2] = target: GST-JNK2 (Homo sapiens, UniProt P45984); test: JNK2 in vitro kinase assay (SPA, GST-c-Jun substrate)
Procedure: as §1

[3] = target: p38 (Homo sapiens, UniProt Q16539); test: p38 in vitro kinase assay (SPA, GST-ATF2 substrate)
Procedure: as §1

[4] = target: ERK2 (Homo sapiens, UniProt P28482); test: ERK2 in vitro kinase assay (SPA, myelin basic protein substrate)
Procedure: as §1

Sequence of ERK2 (P28482 whole entry, species assumed): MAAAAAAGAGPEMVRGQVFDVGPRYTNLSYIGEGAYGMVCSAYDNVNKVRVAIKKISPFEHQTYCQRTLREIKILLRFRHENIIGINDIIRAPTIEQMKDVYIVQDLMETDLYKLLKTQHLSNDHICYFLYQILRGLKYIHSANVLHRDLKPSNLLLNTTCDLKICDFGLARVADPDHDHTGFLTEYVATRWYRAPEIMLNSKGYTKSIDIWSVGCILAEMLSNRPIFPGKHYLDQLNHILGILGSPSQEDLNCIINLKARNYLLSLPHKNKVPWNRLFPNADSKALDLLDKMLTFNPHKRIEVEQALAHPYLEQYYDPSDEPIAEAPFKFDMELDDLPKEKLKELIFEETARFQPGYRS
Sequence of JNK3 (P53779 whole entry, species assumed): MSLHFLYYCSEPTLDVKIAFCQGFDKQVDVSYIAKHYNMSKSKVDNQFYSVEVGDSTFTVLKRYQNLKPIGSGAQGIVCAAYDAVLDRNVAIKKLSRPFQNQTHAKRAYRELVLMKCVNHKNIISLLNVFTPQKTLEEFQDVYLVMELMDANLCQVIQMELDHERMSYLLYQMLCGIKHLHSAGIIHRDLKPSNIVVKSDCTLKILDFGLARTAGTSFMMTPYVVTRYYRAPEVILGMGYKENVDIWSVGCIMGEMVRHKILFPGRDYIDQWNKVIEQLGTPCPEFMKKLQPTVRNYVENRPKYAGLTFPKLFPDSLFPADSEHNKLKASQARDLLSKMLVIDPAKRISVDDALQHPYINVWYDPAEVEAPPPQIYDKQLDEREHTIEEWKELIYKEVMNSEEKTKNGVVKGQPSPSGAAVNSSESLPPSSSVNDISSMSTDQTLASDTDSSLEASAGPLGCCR
Sequence of p38 (Q16539 whole entry): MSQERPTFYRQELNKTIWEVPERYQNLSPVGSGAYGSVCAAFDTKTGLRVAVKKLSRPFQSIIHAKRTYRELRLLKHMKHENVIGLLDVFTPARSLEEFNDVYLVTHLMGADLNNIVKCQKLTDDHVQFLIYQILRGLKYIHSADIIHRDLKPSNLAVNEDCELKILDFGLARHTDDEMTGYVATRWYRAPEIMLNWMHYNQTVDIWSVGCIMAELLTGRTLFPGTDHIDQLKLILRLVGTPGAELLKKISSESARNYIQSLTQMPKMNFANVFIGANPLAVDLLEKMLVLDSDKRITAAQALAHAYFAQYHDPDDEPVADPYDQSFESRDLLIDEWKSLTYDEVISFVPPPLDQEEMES
Sequence of GST-JNK2 (P45984 whole entry): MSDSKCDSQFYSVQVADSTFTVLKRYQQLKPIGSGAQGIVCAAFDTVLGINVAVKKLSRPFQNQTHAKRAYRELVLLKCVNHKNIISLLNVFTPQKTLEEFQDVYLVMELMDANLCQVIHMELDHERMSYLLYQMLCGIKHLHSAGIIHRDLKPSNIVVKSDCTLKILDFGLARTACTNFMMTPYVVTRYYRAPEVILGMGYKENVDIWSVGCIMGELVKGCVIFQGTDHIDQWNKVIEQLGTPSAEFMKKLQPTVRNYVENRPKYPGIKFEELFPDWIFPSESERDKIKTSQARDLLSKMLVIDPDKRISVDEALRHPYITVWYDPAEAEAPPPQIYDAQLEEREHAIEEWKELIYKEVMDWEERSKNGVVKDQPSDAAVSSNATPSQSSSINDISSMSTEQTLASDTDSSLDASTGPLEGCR

| Compound | IC50 [1] | IC50 [2] | IC50 [3] | IC50 [4] |
| --- | --- | --- | --- | --- |
| O=C(CNS(=O)(=O)c1ccc(CNC(=O)c2ccc(Cl)cc2)s1)NCCNc1ncc(C(F)(F)F)cc1Cl [Example 1, 4chloro-N-({5-[({2-[(2-{[3-chloro-5-(trifluoromethyl)pyridin-2-yl]amino}ethyl)amino]-2-oxoethyl}amino)sulfonyl]thien-2-yl}methyl)benzamide] | 1200 nM | 2700 nM | > 30000 nM | > 30000 nM |
| O=C(CNS(=O)(=O)c1ccc(CNC(=O)c2ccc(Cl)cc2)s1)Nc1cccc(S(=O)(=O)C(F)(F)F)c1 [Example 6, 4-chloro-N-[(5-{[(2-oxo-2-{3-[(trifluoromethyl)sulfonyl]anilino)ethyl)amino]sulfonyl}thien-2-yl)methyl]benzamide] | 640 nM | 1300 nM | > 30000 nM | > 30000 nM |
